Reference: patent US5235045A, “Non-azo naphthalimide dyes” (priority 1992, dated 1993)

Legend:
[1] = Binding kinetics of dye to synthetic vesicles (fluorescence increase)
Protocol: All of the vehicles used in these studies were prepared to have a final lipid, egg lecithin+cholesterol concentration of 10 mg/ml. Cholesterol concentrations were varied between 0 and 45 mol % by varying the lipid composition from which the vesicles were produced. The subject dyes were added in 10% aqueous isopropyl alcohol solutions to vesicle suspensions in water. The dyes are non-fluorescent in 10% aqueous isopropy alcohol, but are highly fluorescent in vesicles. The increase in fluorescence was monitored at an excitation wavelength of 460 nm and an emission wavelength of 519 nm. Fluorescence intensity was measured as a function of time, and fit to a standard first-order kinetic plot.

[2] = Cell viability in absence of light (trypan blue exclusion); type: cell-based, human; settings: dark
From the text: Following the protocol of (1), above, H9 cells were stained with Compound lb, and the technique of fluorescent microscopy was used to determine visually the sites of localization of dye fluorescence in living cells. Specifically, H9 cells were counted with a hemocytometer and diluted to 5×10^5 /ml. […] Cytospin slides of the cell suspensions were made and they were examined with the fluorescence microscope (Olympus AH-2) using B excitation plus a 460 nm interference excitation filter and a 495 nm emission filter. The cells were also counted with a hemocytometer and their viability determined (see below). […] The former may reflect the diffusional component of the dye incorporation, or may reflect binding in the ER membrane. The latter may indicate lysosomal localization of pinocytosed dye as occurs with Lucifer Yellow.
Cell viability was determined using dye incorporated according to the protocol directly above. Viability was determined using a trypan blue dye exclusion test in which "live" cells with competent cell membranes exclude the dye. Table 5 summarizes the data obtained using cells exposed to Compound 1b in culture medium, and Table 6 summarizes data obtained using cells exposed to Compound VII.

[3] = tested on: Human Herpes Simplex Virus Type I; assay: Photoinduced inactivation of HSV-I, plaque assay (Table 11); type: cell-based; settings: 420±5 nm, 20J/cm^2
[4] = tested on: Herpes simplex virus type 1; assay: Effect of Ed6Br and light on aqueous suspensions of HSV-1 (plaque assay); type: cell-based, MacIntyre strain
[5] = tested on: various individual protein preparations; assay: Protein cross-linking with DiEd6Br and light (gel electrophoresis, general); type: biochemical
From the text: Concomitant with the appearance of the heavier species with photoillumination with the decrease in intensity of electromigrated bands of the initially present protein.

[6] = tested on: F-actin polymers of G-actin; assay: Protein crosslinking with DiEd6Br: F-actin; type: biochemical; settings: 40.0 μM, 400 J/cm^2

SMILES: CCCCCCNc1c(Br)cc2c3c(cccc13)C(=O)N(CCCCCC)C2=O [Compound VII, 3-bromo-4-(hexyl)amino-N-hexyl-1,8-naphthalimide]
- rate constant for binding ([1]; 0 mol % cholesterol): 0.814 ± 0.005 × 10^-3 s^-1
- rate constant for binding ([1]; 15 mol % cholesterol): 1.020 ± 0.005 × 10^-3 s^-1
- rate constant for binding ([1]; 30 mol % cholesterol): 1.54 ± 0.02 × 10^-3 s^-1
- rate constant for binding ([1]; 45 mol % cholesterol): 2.75 ± 0.01 × 10^-3 s^-1
- viability at 4 h, 1 µM ([2]; 1 μM, 100% human plasma 4 hours, 1 hour after): 95.9%
- viability at 4 h, 5 µM ([2]; 5 μM, 100% human plasma 4 hours, 1 hour after): 94.7%
- viability at 4 h, 25 µM ([2]; 25 μM, 100% human plasma 4 hours, 1 hour after): 95.5%
- viability at 24 h, 1 µM ([2]; human, 1 μM, medium 24 hours, 1 hour after): 86.8%
- viability at 24 h, 10 µM ([2]; human, 10 μM, medium 24 hours, 1 hour after): 80%
- viability at 24 h, 25 µM ([2]; human, 25 μM, medium 24 hours, 1 hour after): 79.6%
- viability at 24 h, 50 µM ([2]; human, 50 μM, medium 24 hours, 1 hour after): 42.5%
- Infectivity, Average ([3]; 0.078 μM): 37.5 PFU/ml
- Infectivity, first PFU/ml column ([3]; 0.078 μM): 45 PFU/ml
- Infectivity, second PFU/ml column ([3]; 0.078 μM): 30 PFU/ml
- Infectivity, Average ([3]; 0.156 μM): 17.5 PFU/ml
- Infectivity, first PFU/ml column ([3]; 0.156 μM): 20 PFU/ml
- Infectivity, second PFU/ml column ([3]; 0.156 μM): 15 PFU/ml
- Infectivity, Average ([3]; 0.312 μM): 7.5 PFU/ml
- Infectivity, first PFU/ml column ([3]; 0.312 μM): 10 PFU/ml
- Infectivity, second PFU/ml column ([3]; 0.312 μM): 5 PFU/ml
- Infectivity, Average ([3]; 0.625 μM): 0 PFU/ml
- Infectivity, first PFU/ml column ([3]; 0.625 μM): 0 PFU/ml
- Infectivity, Average ([3]; 1.25 μM): 0 PFU/ml
- Infectivity, first PFU/ml column ([3]; 1.25 μM): 0 PFU/ml
- Infectivity, second PFU/ml column ([3]; 1.25 μM): 0 PFU/ml
- Infectivity, Average ([3]; 2.5 μM): 0 PFU/ml
- Infectivity, first PFU/ml column ([3]; 2.5 μM): 0 PFU/ml
- Infectivity, second PFU/ml column ([3]; 2.5 μM): 0 PFU/ml
- Infectivity, Average ([3]; 5 μM): 0 PFU/ml
- Infectivity, first PFU/ml column ([3]; 5 μM): 0 PFU/ml
- Infectivity, second PFU/ml column ([3]; 5 μM): 0 PFU/ml
- Infectivity, Average ([3]; 10 μM): 0 PFU/ml
- Infectivity, first PFU/ml column ([3]; 10 μM): 0 PFU/ml
- Infectivity, second PFU/ml column ([3]; 10 μM): 0 PFU/ml
- activity at 0.078 µM ([3]; Human alphaherpesvirus 1, light or radiation study, 0.078 μM, read-out: % Survival): 0.006%
- log reduction at 0.078 µM ([3]; Human alphaherpesvirus 1, light or radiation study, 0.078 μM, read-out: log10 reduction): 4.2
- activity at 0.156 µM ([3]; Human alphaherpesvirus 1, light or radiation study, 0.156 μM, read-out: % Survival): 0.0028%
- log reduction at 0.156 µM ([3]; Human alphaherpesvirus 1, light or radiation study, 0.156 μM, read-out: log10 reduction): 4.5
- activity at 0.312 µM ([3]; Human alphaherpesvirus 1, light or radiation study, 0.312 μM, read-out: % Survival): 0.0012%
- log reduction at 0.312 µM ([3]; Human alphaherpesvirus 1, light or radiation study, 0.312 μM, read-out: log10 reduction): 4.9
- activity at 0.625 µM ([3]; Human alphaherpesvirus 1, light or radiation study, 0.625 μM, read-out: % Survival): < 0.0002%
- log reduction at 0.625 µM ([3]; Human alphaherpesvirus 1, light or radiation study, 0.625 μM, read-out: log10 reduction): > 5.7
- activity at 1.25 µM ([3]; Human alphaherpesvirus 1, light or radiation study, 1.25 μM, read-out: % Survival): < 0.0002%
- log reduction at 1.25 µM ([3]; Human alphaherpesvirus 1, light or radiation study, 1.25 μM, read-out: log10 reduction): > 5.7
- activity at 2.5 µM ([3]; Human alphaherpesvirus 1, light or radiation study, 2.5 μM, read-out: % Survival): < 0.0002%
- log reduction at 2.5 µM ([3]; Human alphaherpesvirus 1, light or radiation study, 2.5 μM, read-out: log10 reduction): > 5.7
- activity at 5 µM ([3]; Human alphaherpesvirus 1, light or radiation study, 5 μM, read-out: % Survival): < 0.0002%
- log reduction at 5 µM ([3]; Human alphaherpesvirus 1, light or radiation study, 5 μM, read-out: log10 reduction): > 5.7
- activity at 10 µM ([3]; Human alphaherpesvirus 1, light or radiation study, 10 μM, read-out: % Survival): < 0.0002%
- log reduction at 10 µM ([3]; Human alphaherpesvirus 1, light or radiation study, 10 μM, read-out: log10 reduction): > 5.7
- PFU/ml ([4]; 1.25 μM, irradiated 20 J/cm2, 420 nm): 0 PFU/ml
- PFU/ml ([4]; 2.5 μM, irradiated 20 J/cm2, 420 nm): 0 PFU/ml
- PFU/ml ([4]; 5 μM, irradiated 20 J/cm2, 420 nm): 0 PFU/ml
- PFU/ml ([4]; 10 μM, irradiated 20 J/cm2, 420 nm): 0 PFU/ml
- PFU/ml ([4]; .078 μM, irradiated 20 J/cm2, 420 nm): 3.8 × 10^1 PFU/ml
- PFU/ml ([4]; .156 μM, irradiated 20 J/cm2, 420 nm): 1.8 × 10^1 PFU/ml
- PFU/ml ([4]; .312 μM, irradiated 20 J/cm2, 420 nm): 7.5 × 10^0 PFU/ml
- PFU/ml ([4]; .625 μM, irradiated 20 J/cm2, 420 nm): 0 PFU/ml
- log reduction at 1.25 µM ([4]; Human alphaherpesvirus 1, light or radiation study, 1.25 μM, irradiated 20 J/cm2, 420 nm, read-out: Log10 Reduction): 5.8
- log reduction at 2.5 µM ([4]; Human alphaherpesvirus 1, light or radiation study, 2.5 μM, irradiated 20 J/cm2, 420 nm, read-out: Log10 Reduction): 5.8
- log reduction at 5 µM ([4]; Human alphaherpesvirus 1, light or radiation study, 5 μM, irradiated 20 J/cm2, 420 nm, read-out: Log10 Reduction): 5.8
- log reduction at 10 µM ([4]; Human alphaherpesvirus 1, light or radiation study, 10 μM, irradiated 20 J/cm2, 420 nm, read-out: Log10 Reduction): 5.8
- log reduction at 0.078 µM ([4]; Human alphaherpesvirus 1, light or radiation study, .078 μM, irradiated 20 J/cm2, 420 nm, read-out: Log10 Reduction): 4.22
- log reduction at 0.156 µM ([4]; Human alphaherpesvirus 1, light or radiation study, .156 μM, irradiated 20 J/cm2, 420 nm, read-out: Log10 Reduction): 4.54
- log reduction at 0.312 µM ([4]; Human alphaherpesvirus 1, light or radiation study, .312 μM, irradiated 20 J/cm2, 420 nm, read-out: Log10 Reduction): 4.92
- log reduction at 0.625 µM ([4]; Human alphaherpesvirus 1, light or radiation study, .625 μM, irradiated 20 J/cm2, 420 nm, read-out: Log10 Reduction): 5.8
- kill of HSV-1 ([4]; as low as 0.078 mM, 420 nm, 20 J/cm2, 2.5% or less of serum proteins): > 99.99%

SMILES: CCCCCCNc1ccc2c3c(cccc13)C(=O)N(CCCCCC)C2=O [Compound 1b, 4-(hexyl)amino-N-hexyl-1,8-naphthalimide]
- viability at 1.5 h, 5 µM ([2]; human, 5 μM, medium 1.5 hours, counted 2.5 hours after): 96.7%
- viability at 1.5 h, 25 µM ([2]; human, 25 μM, medium 1.5 hours, counted 2.5 hours after): 97.1%

SMILES: CCCCCCN1C(=O)c2cccc3c(NCCNC(=O)CCCCC(=O)NCCNc4c(Br)cc5c6c(cccc46)C(=O)N(CCCCCC)C5=O)c(Br)cc(c23)C1=O [Compound XLIV]
- heavier molecular species in absence of light ([5]; no light): complete absence of these species
- heavier molecular species ([5]; photoirradiation nominally 420 nm): formation of slower electromigrating, thus heavier, molecular species
- heavier bands [6]: many ill separated heavier bands merging together near
- Inferred Crosslinked Species ([6]; first species): 2 G-actin
- Inferred Crosslinked Species ([6]; second species): 3 G-actin
- Inferred Crosslinked Species, Gel mw ([6]; 2 G-actin monomers): 94 kD
- Inferred Crosslinked Species, Gel mw ([6]; 3 G-actin monomers): 141 kD
